Experimental data: patent EP2769738B1, “Conjugated TLR7 and/or TLR8 and TLR2 polycationic agonists” (Invivogen, priority 2013, dated 2014)

Legend:
[1] = tested on: ISG54 promoter activity in RAW-ISG54 reporter cells; test: IFN response assay, RAW-ISG54 luciferase reporter cells; assay type: cell-based, mouse; conditions: Figure 6A, in complexes with pDNA 3:24 (w:w), overnight
Procedure: (§1) The effect of the pDNA:TLR7-TLR2 polyamine molecules complexes on inducing an interferon response was examined. pDNA:TLR7-TLR2 polyamine molecules mixtures (pDNA:TLR7-TLR2 polyamine molecules ratio 3:24, w:w) in serum-free medium or 5% glucose were prepared as described above and added to IFN reporter cells. Luciferase reporter cell lines were used to assay interferon response. A plasmid containing an interferon-inducible luciferase reporter gene was introduced into mouse RAW 264.7 macrophages and mouse B16 melanoma cells, giving rise to the RAW-ISG54 and B16-ISG54 reporter cell lines respectively. Expression of the luciferase reporter gene by the plasmid is under the control of an interferon-inducible promoter (I-ISG54) comprising five interferon-stimulated response elements (ISRE) and the minimal promoter of the human ISG-54K (Interferon Stimulation of a Gene encoding a 54 kDa protein) gene. The ISG-54K gene is induced by interferon regulatory factor 3 (IRF3), which has a key involvement in […] responses (Grandvaux et al. 2002) and the minimal promoter of the human ISG-54K gene contains two ISRE sites and fully inducible by type I interferons (IFN-α and IFN-β) and interferon regulatory factors (IRFs) (Wathelet et al. 1988; Grandvaux et al. 2002).
(§2) The RAW-ISG54 and B16-ISG54 reporter cell lines were seeded onto 96 well microtiter plates at 100,000 cells per well and 75,000 cells per well respectively. […] The induced luciferase expression was assessed in the reporter cell lines using a coelenterazine-base luminescence assay reagent, the Quanti-LucTM (InvivoGen). Secreted luciferase activity was determined by bioluminescence quantification of the cell culture media using a microplate luminometer (FLUOstar OPTIMA from BMG Labtech).

HEK293 cells = test: Cell transfection with SEAP plasmid, HEK293; assay type: cell-based, human; conditions: Figure 5A; in complex with pVitro14 LGFP SEAP plasmid, 48 hours, SEAP reporter gene expression
Procedure: (§3) The TLR7-TLR2 molecules were tested for their ability as polyamine molecules to transport plasmid DNA (pDNA) into cells. The pVitro14 LGFP SEAP plasmid (InvivoGen) was complexed to TLR7-TLR2 polyamine molecules and to the control cationic lipid transfection agent, LyoVec™ (InvivoGen). The human HEK293 (ATCC, CRL-1573) and mouse B16-F1 melanoma (ATCC, CRL-6323) cell lines were seeded at a density of 50 000 cells/well and 20 000 cells/well respectively, in the absence or presence of different volumes of the plasmid encoding for the SEAP protein in complex with TLR7-TLR2 polyamine molecules for 48 hours at 37°C and 10% CO2. Transfection efficiency was assessed by measuring SEAP reporter gene expression: 20 µl of supernatant was sampled and mixed with 180 µl of QUANTI-Blue™ Detection (InvivoGen). In the presence of alkaline phosphatase SEAP, the color of QUANTI-Blue™ changes from pink to purple/blue. The intensity of the blue hue reflects the activity of SEAP. The levels of SEAP secretion were determined quantitatively by reading the OD at 620-655 nm using a spectrophotometer, iMark™ Microplate Reader (BIO-RAD).

B16-F1 cells = test: Cell transfection with SEAP plasmid, B16-F1; assay type: cell-based, mouse; conditions: Figure 5B; in complex with pVitro14 LGFP SEAP plasmid, 48 hours, SEAP reporter gene expression
Procedure: as §3

[2] = tested on: ISG54 promoter activity in B16-ISG54 reporter cells; test: IFN response assay, B16-ISG54 luciferase reporter cells; assay type: cell-based, mouse; conditions: Figure 6B, in complexes with pDNA 3:24 (w:w), overnight
Procedure: as §1, §2

SMILES	ability to induce an IFN response (ISG54 promoter activity) in RAW-ISG54 reporter cells [1]	ability to transfect HEK293 cells (HEK293 cells)	ability to transfect B16-F1 cells (B16-F1 cells)	ability to induce an IFN response (ISG54 promoter activity) in B16-ISG54 reporter cells [2]
CCCCCCCCCCCCCCCC(=O)OCC(CSC[C@H](N)C(=O)N[C@@H](COC(=O)c1ccc(Cn2c(O)nc3c(N)nc(NCCCC)nc32)cc1)C(=O)NCCCNCCCCNCCCN)OC(=O)CCCCCCCCCCCCCCC (stereo partly drawn) [CL514, (6R,9S)-6,23-diamino-9-((4-((6-amino-2-(butylamino)-8-hydroxy-9H-purin-9-yl)methyl)benzoyloxy)methyl)-7,10-dioxo-4-thia-8,11,15,20-tetraazatricosane-1,2-diyl dipalmitate]	induce an IFN response in RAW-ISG54 reporter cells	transfect HEK293 cells	transfect B16-F1 cells	induce an IFN response in B16-ISG54 reporter cells
CCCCCCCCCCCCCCCC(=O)OCC(CSC[C@H](N)C(=O)N[C@@H](CCC(=O)NCCCNCCCCNCCCN)C(=O)Nc1ccc(Cn2c(O)nc3c(N)nc(NCCCC)nc32)cc1)OC(=O)CCCCCCCCCCCCCCC (stereo partly drawn) [CL527, (6R,9S)-6,25-diamino-9-(4-((6-amino-2-(butylamino)-8-hydroxy-9H-purin-9-yl)methyl)phenylcarbamoyl)-7,12-dioxo-4-thia-8,13,17,22-tetraazapentacosane-1,2-diyl dipalmitate]	induce an IFN response in RAW-ISG54 reporter cells	transfect HEK293 cells	transfect B16-F1 cells	induce an IFN response in B16-ISG54 reporter cells
CCCCCCCCCCCCCCCC(=O)OCC(CSC[C@H](N)C(=O)NCCCNCCCCNCCCNC(=O)CNC(=O)c1ccc(Cn2c(O)nc3c(N)nc(NCCCC)nc32)cc1)OC(=O)CCCCCCCCCCCCCCC (stereo partly drawn) [CL553, (20R)-20-amino-1-(4-((6-amino-2-(butylamino)-8-hydroxy-9H-purin-9-yl)methyl)phenyl)-1,4,19-trioxo-22-thia-2,5,9,14,18-pentaazapentacosane-24,25-diyl dipalmitate]	induce an IFN response in RAW-ISG54 reporter cells	transfect HEK293 cells	transfect B16-F1 cells	induce an IFN response in B16-ISG54 reporter cells
